Test results as given in patent publication US20230085307A1, “PYRIDAZINONE COMPOUND AND HERBICIDE” (NISSAN CHEMICAL CORPORATION, priority 2019, published 2023).

Columns and labels:
[1] = tested on: barnyard grass; test: Test Example 3: herbicidal effect by foliage application, Wagner pot (Table 18, symbol H); assay type: in vivo, barnyard grass (Echinochloa crus-galli)
In short: (§1)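 Plants were sown in alluvial soil held under 0.1–0.5 cm standing water and grown 14 days in a greenhouse at 25–30 °C. An emulsifiable formulation, water-diluted to the set dose, was then sprayed onto the foliage, and effects were scored three weeks later using previously defined criteria.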

[2] = tested on: Chinese sprangletop; test: Test Example 3: herbicidal effect by foliage application, Wagner pot (Table 18, symbol D); assay type: in vivo, chinese sprangletop (Leptochloa chinensis)
In short: as §1

[3] = tested on: rice flat sedge; test: Test Example 3: herbicidal effect by foliage application, Wagner pot (Table 18, symbol E); assay type: in vivo, rice flat sedge (Cyperus iria)
In short: as §1

[4] = tested on: southern crabgrass; test: Test Example 4: herbicidal effect by soil treatment (Table 19, symbol F); assay type: in vivo, southern crabgrass (Digitaria ciliaris)
In short: (§2)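 Step 1: sow seeds in sterilized diluvial soil, cover ~1.5 cm. Step 2: spray diluted emulsion onto soil surface at predetermined rate. Step 3: greenhouse, 25–30° C, three weeks. Step 4: grade effect on each plant by earlier criteria.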

[5] = tested on: green foxtail; test: Test Example 4: herbicidal effect by soil treatment (Table 19, symbol G); assay type: in vivo, green foxtail (Setaria viridis)
In short: as §2

[6] = tested on: barnyard grass; test: Test Example 4: herbicidal effect by soil treatment (Table 19, symbol H); assay type: in vivo, barnyard grass (Echinochloa crus-galli)
In short: as §2

[7] = tested on: wild oat; test: Test Example 4: herbicidal effect by soil treatment (Table 19, symbol I); assay type: in vivo, wild oat (Avena fatua)
In short: as §2

[8] = tested on: blackgrass; test: Test Example 4: herbicidal effect by soil treatment (Table 19, symbol J); assay type: in vivo, blackgrass (Alopecurus myosuroides); settings: amount of applied herbicide 84 g/ha
In short: as §2

[9] = tested on: Italian ryegrass; test: Test Example 4: herbicidal effect by soil treatment (Table 19, symbol K); assay type: in vivo, Italian ryegrass (Lolium multiflorum)
In short: as §2

[10] = tested on: windgrass; test: Test Example 4: herbicidal effect by soil treatment (Table 19, symbol L); assay type: in vivo, windgrass (Apera spica-venti)
In short: as §2

[11] = tested on: velvetleaf; test: Test Example 4: herbicidal effect by soil treatment (Table 19, symbol M); assay type: in vivo, velvetleaf (Abutilon theophrasti)
In short: as §2

[12] = tested on: redroot pigweed; test: Test Example 4: herbicidal effect by soil treatment (Table 19, symbol N); assay type: in vivo, redroot pigweed (Amaranthus retroflexus)
In short: as §2

[13] = tested on: lambsquarters; test: Test Example 4: herbicidal effect by soil treatment (Table 19, symbol O); assay type: in vivo, lambsquarters (Chenopodium album)
In short: as §2

[14] = tested on: chickweed; test: Test Example 4: herbicidal effect by soil treatment (Table 19, symbol P); assay type: in vivo, common chickweed (Stellaria media)
In short: as §2

[15] = tested on: persian speedwell; test: Test Example 4: herbicidal effect by soil treatment (Table 19, symbol R); assay type: in vivo, Persian speedwell (Veronica persica)
Source text: [Test Example 4] Herbicidal Effect Test by Soil Treatment
Sterilized diluvial soil was placed in a plastic box having a length of 21 cm, a width of 13 cm, and a depth of 7 cm. The seeds of each of southern crabgrass, green foxtail, barnyard grass, wild oat, blackgrass, Italian ryegrass, windgrass, velvetleaf, redroot pigweed, lambsquarters, chickweed, false cleavers, persian speedwell, corn, soybean, rice, wheat, beet, and rapeseed were sowed in a spot-like manner and covered with the soil having a thickness of about 1.5 cm. Subsequently, the emulsion agent of the compound of the present invention prepared according to Formulation Example 2 was diluted with water so as to achieve a predetermined herbicide amount, and the diluted emulsion agent was uniformly applied to the surface of the soil with a small-sized spray. The plastic box was placed in a greenhouse at 25° C. to 30° C. for growth of the plants. Three weeks after the herbicide application, the effect of the herbicide on each plant was evaluated according to the criteria of Test Example 1.

[16] = tested on: southern crabgrass; test: Test Example 5: herbicidal effect by foliage application, plastic box (Table 20, symbol F); assay type: in vivo, southern crabgrass (Digitaria ciliaris); settings: foliage application, 320 g/ha, 3 weeks after application
In short: (§3)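 Foliar spray test: emulsion formulation diluted in water to a set application rate, sprayed onto 14-day-old plants raised in diluvial soil at 25° C to 30° C under glass. Both herbicidal effect and crop effect rated visually three weeks later.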

[17] = tested on: green foxtail; test: Test Example 5: herbicidal effect by foliage application, plastic box (Table 20, symbol G); assay type: in vivo, green foxtail (Setaria viridis); settings: foliage application, 320 g/ha, 3 weeks after application
In short: as §3

[18] = tested on: barnyard grass; test: Test Example 5: herbicidal effect by foliage application, plastic box (Table 20, symbol H); assay type: in vivo, barnyard grass (Echinochloa crus-galli); settings: foliage application, 320 g/ha, 3 weeks after application
In short: as §3

[19] = tested on: wild oat; test: Test Example 5: herbicidal effect by foliage application, plastic box (Table 20, symbol I); assay type: in vivo, wild oat (Avena fatua); settings: foliage application, 320 g/ha, 3 weeks after application
In short: as §3

[20] = tested on: blackgrass; test: Test Example 5: herbicidal effect by foliage application, plastic box (Table 20, symbol J); assay type: in vivo, blackgrass (Alopecurus myosuroides); settings: foliage application, 320 g/ha, 3 weeks after application
In short: as §3

[21] = tested on: Italian ryegrass; test: Test Example 5: herbicidal effect by foliage application, plastic box (Table 20, symbol K); assay type: in vivo, Italian ryegrass (Lolium multiflorum); settings: foliage application, 320 g/ha, 3 weeks after application
In short: as §3

[22] = tested on: windgrass; test: Test Example 5: herbicidal effect by foliage application, plastic box (Table 20, symbol L); assay type: in vivo, windgrass (Apera spica-venti); settings: foliage application, 320 g/ha, 3 weeks after application
In short: as §3

[23] = tested on: velvetleaf; test: Test Example 5: herbicidal effect by foliage application, plastic box (Table 20, symbol M); assay type: in vivo, velvetleaf (Abutilon theophrasti); settings: foliage application, 320 g/ha, 3 weeks after application
In short: as §3

[24] = tested on: lambsquarters; test: Test Example 5: herbicidal effect by foliage application, plastic box (Table 20, symbol O); assay type: in vivo, lambsquarters (Chenopodium album); settings: foliage application, 320 g/ha, 3 weeks after application
In short: as §3

[25] = tested on: persian speedwell; test: Test Example 5: herbicidal effect by foliage application, plastic box (Table 20, symbol R); assay type: in vivo, Persian speedwell (Veronica persica); settings: foliage application, 320 g/ha, 3 weeks after application
In short: as §3

[26] = amount of applied herbicide 84 g/ha

In the case of `Cc1nn(C)c(=O)c(-c2c(-c3c(F)cc(F)cc3F)sc3ccc(F)cc23)c1O` [2-372], the “herbicidal effect on H: barnyard grass” value [1, 26] is reported as 4 (Herbicidal rate of 70% or more and less than 90%), the “herbicidal effect on D: Chinese sprangletop” value [2, 26] is reported as 4 (Herbicidal rate of 70% or more and less than 90%) and the “herbicidal effect on E: rice flat sedge” value [3, 26] is reported as 3 (Herbicidal rate of 40% or more and less than 70%). The “herbicidal effect, F: southern crabgrass” value [4, 26] was 0 (Herbicidal rate of 5% or less (almost no effect)), the “herbicidal effect, G: green foxtail” value [5, 26] was 0 (Herbicidal rate of 5% or less (almost no effect)) and the “herbicidal effect, H: barnyard grass” value [6, 26] was 0 (Herbicidal rate of 5% or less (almost no effect)). For the same compound, the “herbicidal effect, I: wild oat” value [7, 26] was 0 (Herbicidal rate of 5% or less (almost no effect)), the “herbicidal effect, J: blackgrass” value [8] was 0 (Herbicidal rate of 5% or less (almost no effect)) and the “herbicidal effect, K: Italian ryegrass” value [9, 26] was 2 (Herbicidal rate of 20% or more and less than 40%). The “herbicidal effect, L: windgrass” value [10, 26] was 0 (Herbicidal rate of 5% or less (almost no effect)), the “herbicidal effect, M: velvetleaf” value [11, 26] was 0 (Herbicidal rate of 5% or less (almost no effect)) and the “herbicidal effect, N: redroot pigweed” value [12, 26] was 0 (Herbicidal rate of 5% or less (almost no effect)). The “herbicidal effect, O: lambsquarters” value [13, 26] was 0 (Herbicidal rate of 5% or less (almost no effect)), the “herbicidal effect, P: chickweed” value [14, 26] was 0 (Herbicidal rate of 5% or less (almost no effect)) and the “herbicidal effect, R: persian speedwell” value [15, 26] was 0 (Herbicidal rate of 5% or less (almost no effect)).
For `Cc1nn(C)c(=O)c(-c2c(-c3ccc(F)cc3)sc3ccc(F)cc23)c1OCC(=O)c1ccccc1` [2-008], the “herbicidal effect on H (barnyard grass), rating 0-5” value ([1]; 320 g/ha) was 2 (Herbicidal rate of 20% or more and less than 40%), the “herbicidal effect on D (Chinese sprangletop), rating 0-5” value ([2]; 320 g/ha) was 1 (Herbicidal rate of 5% or more and less than 20%) and the “herbicidal effect on E (rice flat sedge), rating 0-5” value ([3]; 320 g/ha) was 4 (Herbicidal rate of 70% or more and less than 90%). The “herbicidal effect rating, F: southern crabgrass” value ([4]; 320 g/ha) was 0 (Herbicidal rate of 5% or less (almost no effect)), the “herbicidal effect rating, G: green foxtail” value ([5]; 320 g/ha) was 0 (Herbicidal rate of 5% or less (almost no effect)) and the “herbicidal effect rating, H: barnyard grass” value ([6]; 320 g/ha) was 0 (Herbicidal rate of 5% or less (almost no effect)). The “herbicidal effect rating, I: wild oat” value ([7]; 320 g/ha) was 0 (Herbicidal rate of 5% or less (almost no effect)), the “herbicidal effect rating, K: Italian ryegrass” value ([9]; 320 g/ha) was 0 (Herbicidal rate of 5% or less (almost no effect)) and the “herbicidal effect rating, L: windgrass” value ([10]; 320 g/ha) was 0 (Herbicidal rate of 5% or less (almost no effect)). For the same compound, the “herbicidal effect rating, M: velvetleaf” value ([11]; 320 g/ha) was 0 (Herbicidal rate of 5% or less (almost no effect)), the “herbicidal effect rating, N: redroot pigweed” value ([12]; 320 g/ha) was 4 (Herbicidal rate of 70% or more and less than 90%) and the “herbicidal effect rating, O: lambsquarters” value ([13]; 320 g/ha) was 0 (Herbicidal rate of 5% or less (almost no effect)). The “herbicidal effect rating, P: chickweed” value ([14]; 320 g/ha) was 0 (Herbicidal rate of 5% or less (almost no effect)), the “herbicidal effect rating, R: persian speedwell” value ([15]; 320 g/ha) was 0 (Herbicidal rate of 5% or less (almost no effect)) and the “effect on southern crabgrass (F)” value [16] was 0 (Herbicidal rate of 5% or less (almost no effect)). The “effect on green foxtail (G)” value [17] was 0 (Herbicidal rate of 5% or less (almost no effect)), the “effect on barnyard grass (H)” value [18] was 0 (Herbicidal rate of 5% or less (almost no effect)) and the “effect on wild oat (I)” value [19] was 0 (Herbicidal rate of 5% or less (almost no effect)). For the same compound, the “effect on blackgrass (J)” value [20] was 0 (Herbicidal rate of 5% or less (almost no effect)), the “effect on Italian ryegrass (K)” value [21] was 3 (Herbicidal rate of 40% or more and less than 70%) and the “effect on windgrass (L)” value [22] was 0 (Herbicidal rate of 5% or less (almost no effect)). For the same compound, the “effect on velvetleaf (M)” value [23] was 1 (Herbicidal rate of 5% or more and less than 20%), the “effect on lambsquarters (O)” value [24] was 1 (Herbicidal rate of 5% or more and less than 20%) and the “effect on persian speedwell (R)” value [25] was 3 (Herbicidal rate of 40% or more and less than 70%).
